Measurements as given in patent publication US10533018B2, “Antimicrobial prochelators to target drug-resistant bacteria and methods of making and using the same” (Duke University, priority 2015, dated 2020).
Read-outs that look alike come from different tables or passages of the source.

Columns and labels:
+Bla K-12 E. coli = test: microbe, parasite or virus in culture; assay type: cell-based, Escherichia coli
Text: (§1) Bacterial culture reagents including LB broth (Lennox), agar-agar, ampicillin, and ceftriaxone were purchased from Sigma Aldrich Corp. The Escherichia coli (E. coli) K12 strain HB101 and pGLO E. coli transformation kit purchased from Bio-Rad Laboratories Inc. HB101 was transformed with the bla gene via the pGLO plasmid. The bla gene encodes for a TEM-1 β-lactamase that imparts penicillin resistance to the mutant E. coli K-12 strain (+Bla). Strains E. coli UTI89, [27] pCOM-GFP-transformed E. coli UTI89 (pCOM-GFP), [28] and Methicillin-Resistant Staphylococcus aureus (MRSA) clone USA300 [29] have been previously described. The Extended-Spectrum β-Lactamase (ESBL) E. coli, Klebsiella pneumonia (Klebs), and Pseudomonas aeruginosa (Pseudo) strains were clinical isolates acquired deidentified from Duke Hospital and tested for antibiotic susceptibility in the Clinical Microbiology Laboratory using standard clinical susceptibility methods.
(§2) Cultures were incubated on LB (Lennox, Sigma) agar at 37° C. in ambient atmospheric composition. Before beginning an experiment, a single bacterial colony grown on LB agar was resuspended in 2 mL LB broth and incubated overnight to form a turbid cell suspension. The overnight culture was diluted 1:100 in LB and used immediately as the working culture. To assess the antibacterial activity of compounds, the working bacterial culture was aliquoted in a clear, flat-bottomed, 96-well polystyrene plate (Costar) and the compound of interest was added in 2-fold serial dilution from 500 to 1 μM. Plates were covered with a breathable sealing film (Aeroseal, Genesee Scientific) and incubated at 37° C. in ambient atmospheric composition with shaking at 200 rpm. Optical density at 600 nm was recorded after 4 h and 20 h for each well using a standard OD600 protocol with LB serving as the blank. The resulting dose-response curves were fit to a nonlinear regression in GraphPad Prism Version 6 to calculate the IC50 of DB4-51 in each strain.
(§3) The ability of DB4-162 to inhibit bacterial growth was assessed by a traditional broth microdilution method that assesses the turbidity of liquid cultures in the presence of varying concentrations of the compound. As described above for DB4-51, the antibacterial properties of the prochelator DB4-162 were assessed in non-pathogenic lab-strain HB101K-12 E. coli and compared to the pGLO-transfected mutant HB101K-12 E. coli that express β-lactamase. Clinically relevant pathogenic bacteria were also screened, including UTI89 E. coli, pCOM transfected UTI89 E. coli (pCOM), extended spectrum β-lactamase (ESBL) E. coli, methicillin-resistant Staphylococcus aureus (MRSA), and Klebsiella pneumonia (Klebs). In addition to being naturally resistant to many β-lactam antibiotics, MRSA can produce a number of β-lactamases. […] It should be noted that all of the bacteria tested are gram-negative except for gram-positive MRSA.
(§4) The goal of this screen was to calculate the IC50 of the prochelator in a series of pathogenic bacteria and compare these values to the IC50 of known antibiotics in those same strains to determine the relative effectiveness of DB4-162 against the drug-resistant and drug-susceptible bacteria in comparison to current antibiotic treatment options. Bacterial growth was monitored in LB broth at 37° C. in the presence and absence of DB4-162 for 20 hours. A concentration gradient of DB4-162 from 500 to 0 μM was used to screen all 7 strains of bacteria and the dose-response curves were fit to a […] to calculate the IC50 of DB4-162 in each strain. These IC50 values are an approximation of how effectively DB4-162 inhibits the growth of each bacterial strain in vitro.
(§5) IC50 values for ampicillin were calculated via broth microdilution in LB broth only. Values are listed as the mean followed by the 95% confidence interval about the mean. Mean and confidence intervals were calculated from a variable slope, nonlinear regression fit to the dose-response OD600 data. […]

pCOM E. coli = test: microbe, parasite or virus in culture; assay type: cell-based, Escherichia coli; conditions: for IC50: Escherichia coli, pCOM E. coli
Text: as §1, §2, §3, §4, §5

[1] = system: Methicillin-Resistant Staphylococcus aureus (MRSA); test: microbe, parasite or virus in culture; assay type: cell-based
Text: as §1, §2, §3, §4, §5

[2] = system: Type III β-lactamase from Enterobacter cloacae; test: LC-MS conversion of prochelator by β-lactamase; assay type: biochemical
Method: A commercially available β-lactamase (type III from Enterobacter cloacae, Sigma Aldrich) was used to verify the specificity of compound DB4-51 activation. Aqueous samples of the prochelator with and without β-lactamase were incubated at 25° C. and LC-MS was performed periodically to monitor the conversion. Percent conversion was calculated based upon the area under the LC-MS peak that corresponds to the mass of DB4-51.
LC-MS performed on samples containing 100 μM DB4-51, 10 μM Rofecoxib (as internal standard), and 0.5 units/mL β-lactamase in PBS. Samples were incubated at room temperature and analyzed via LC-MS at time 0. The mass spectrum corresponding to the chromatographic peak eluting at 14 min matches the expected m/z value for […]. After incubation, a new peak appears at 7 mins with corresponding m/z values consistent with expected masses of PT disulfide and the 2:1 PT complex with iron. The internal standard was Rofecoxib which elutes at 16 min. The concentrations of DB4-51, PT, and internal standard were calculated based on prepared calibration curves of the integrated area under the UV peak of each component.
The reaction products of the prochelator DB4-162 were analyzed by LC-MS. A sample of 100 μM DB4-162 and 10 μM Rofecoxib (internal standard) in PBS was divided into two LC-MS vials and to one was added 0.5 units/mL β-lactamase. After incubating at room temperature, the samples were run on the LC-MS. Integrating the area under the peak of the UV-trace gives a measure of the concentration of that species. By serial dilution, a calibration curve was constructed in order to quantify the concentration of DB4-162 present in solution. The mass spectrum confirms that the prochelator, with a molecular weight of 477.1 g/mol, elutes at 14.5 minutes (FIG. 10).

[3] = system: CCD-19Lu human lung fibroblast cells
Method: (§6) CellTox Green LDH Cytotoxicity Detection Kit was purchased from Promega. Cell lines were purchased from the ATCC. All work was performed in a laminar-flow hood using sterile techniques. […] After splitting and counting, black, clear bottom 96-well plates were seeded at a density of 15,000 cells/well and incubated overnight at 37° C. in a fully humidified atmosphere containing 5% CO2. […] Untreated cells served as the negative control while wells containing untreated cells incubated with 1% Triton X-100 served as the positive control.
(§7) Using a cytotoxicity assay, the viability of mammalian cells was monitored as a function of their membrane integrity.

[4] = system: HepG2 human liver epithelial cells
Method: as §6, §7

[5] = Escherichia coli, +Bla K-12 E. coli, LB + 500 μM BCS
[6] = Escherichia coli, +Bla K-12 E. coli, LB broth
[7] = Staphylococcus aureus, LB + 500 μM BCS
[8] = concentrations below 500 μM, 24 hour
[9] = Escherichia coli, +Bla K-12 E. coli, LB + 10 μM CuCl2

O=C(Cc1ccccc1)N[C@@H]1C(=O)N2C(C(=O)O)=C(CSc3cccc[n+]3[O-])CS[C@H]12 [DB4-51, 2-((((6R,7R)-2-carboxy-8-oxo-7-(2-phenylacetamido)-5-thia-1-azabicyclo[4.2.0]oct-2-en-3-yl)methyl)thio)pyridine 1-oxide]
change in IC50 value depending on Cu status (+Bla K-12 E. coli; +Bla K-12 E. coli, Cu replete vs Cu depleted): less than 4 fold | IC50 (+Bla K-12 E. coli; [5]): 0.051 µM | IC50 (+Bla K-12 E. coli; Escherichia coli, read-out: IC50 after pre-incubation with β-lactamase, +Bla K-12 E. coli, pre-incubated with β-lactamase): 8 µM | change in IC50 value depending on Cu status (pCOM E. coli; pCOM-GFP UTI89 E. coli, Cu replete vs Cu depleted): 10 fold | change in IC50 value as a function of Cu availability ([1]; Cu-replete vs Cu-limited): 55 fold | Percent conversion (LC-MS peak area) ([2]; 100 μM, 0.5 units/ml β-lactamase, pH 7.4 PBS, after 4 hours): ~80% | decrease of chromatographic peak area of prochelator ([2]; after 4 hours in the presence of β-lactamase): more than 80% | PT released from the prochelator (area under PT peak) ([2]; with β-lactamase, PT difficult to quantify): 50% | LD50 ([3]; 24 h): > 500 µM | cytotoxicity ([3]; below 250 μM, 24 h): non-toxic | LD50 ([4]; 24 h): > 500 µM | cell death ([4]; at 500 μM, 24 h): more than 50% | cytotoxicity ([4]; below 250 μM, 24 h): non-toxic

[O-][n+]1ccccc1S [PT, 2-mercaptopyridine N-oxide]
IC50 (+Bla K-12 E. coli; [5]): 0.019 µM | IC50 (+Bla K-12 E. coli; [6]): 0.006 µM | IC50 (pCOM E. coli; LB + 10 μM CuCl2): 0.004 µM | IC50 (pCOM E. coli; LB + 500 μM BCS): 0.007 µM | IC50 (pCOM E. coli; LB broth): 0.002 µM | IC50 [1, 7]: 0.011 µM | cell death [3, 8]: ≤ 50% | cell death [4, 8]: ≤ 50%

Cc1csc(=S)n1OCC1=C(C(=O)O)N2C(=O)[C@@H](NC(=O)Cc3ccccc3)[C@H]2SC1 [DB4-162, (6R,7R)-3-(((4-methyl-2-thioxothiazol-3(2H)-yl)oxy)methyl)-8-oxo-7-(2-phenylacetamido)-5-thia-1-azabicyclo[4.2.0]oct-2-ene-2-carboxylic acid]
IC50 (+Bla K-12 E. coli; [9]): 147 µM | IC50 (+Bla K-12 E. coli; [5]): 179 µM | IC50 (+Bla K-12 E. coli; [6]): 143 µM | IC50 (pCOM E. coli; LB + 10 μM CuCl2): 93 µM | IC50 (pCOM E. coli; LB + 500 μM BCS): 168 µM | IC50 (pCOM E. coli; LB broth): 112 µM | IC50 ([1]; Staphylococcus aureus, LB + 10 μM CuCl2): 2.7 µM | IC50 [1, 7]: 2.4 µM | IC50 ([1]; Staphylococcus aureus, LB broth): 2.4 µM | reduction of prochelator peak ([2]; 100 μM, 0.5 units/mL β-lactamase, PBS, 4 hours): more than 95%

CC1(C)S[C@@H]2[C@H](NC(=O)[C@H](N)c3ccccc3)C(=O)N2[C@H]1C(=O)O [Ampicillin]
IC50 (+Bla K-12 E. coli; +Bla K-12 E. coli, LB broth): > 250 µM | IC50 (+Bla K-12 E. coli; [9]): > 250 µM | IC50 (+Bla K-12 E. coli; [5]): > 250 µM | IC50 ([1]; LB broth): > 250 µM
